Read-outs that look alike come from different tables or passages of the source.
Key:
[1] = WST-1 cytotoxicity assay on RPMI1788 cells (B-cell line); format: cell-based, human; details: human, RPMI1788 cells (B-cell line), mean of 4 independent measures, read-out: Cytotoxicity, WST-1 RPMI 1788 IC 50 (µM) Mean
human CD19+ B cells = experiment: B-cell assay: IgG production of ODN2006-stimulated primary B cells (AlphaLISA); format: cell-based; details: Homo sapiens, B-cell
Description: (§1) Compounds were prepared as 10 mM stock solutions in dimethylsulfoxide (DMSO)and were tested at 50-10-1-0.1-0.01 and 0.001 μM in the 4 assays.
Blood samples of healthy volunteers were collected at the Red Cross of Mechelen, Belgium.
Highly purified naive peripheral human B cells were separated from fresh human PBMCs on magnetic columns by positive selection using CD19 magnetic beads according to the manufacturer’s instructions (MACS Miltenyi Biotech, Leiden, The Netherlands). […] Freshly isolated human CD19+ B cells were then plated at 25 000 cells per well in a 384-well plate (Perkin Elmer, Zaventem, Belgium) in 55 μL in DMEM medium containing 10% FCS and 5 μg/mL gentamicin sulphate. After 7 days of stimulation with 0.1 μM ODN2006 (InvivoGen, Toulouse, France), supernatant was taken for analysis of IgG using the AlphaLISA human IgG kit according to the manufacturer’s instructions (Perkin Elmer, Zaventem, Belgium).

CK1d = target: T1, CK1d (Homo sapiens, UniProt P48730); experiment: Kinase activity test (ReactionBiology), % enzyme activity relative to DMSO; format: biochemical; details: CK1d
T1 construct: purchased ReactionBiology
T1 sequence (P48730 whole entry): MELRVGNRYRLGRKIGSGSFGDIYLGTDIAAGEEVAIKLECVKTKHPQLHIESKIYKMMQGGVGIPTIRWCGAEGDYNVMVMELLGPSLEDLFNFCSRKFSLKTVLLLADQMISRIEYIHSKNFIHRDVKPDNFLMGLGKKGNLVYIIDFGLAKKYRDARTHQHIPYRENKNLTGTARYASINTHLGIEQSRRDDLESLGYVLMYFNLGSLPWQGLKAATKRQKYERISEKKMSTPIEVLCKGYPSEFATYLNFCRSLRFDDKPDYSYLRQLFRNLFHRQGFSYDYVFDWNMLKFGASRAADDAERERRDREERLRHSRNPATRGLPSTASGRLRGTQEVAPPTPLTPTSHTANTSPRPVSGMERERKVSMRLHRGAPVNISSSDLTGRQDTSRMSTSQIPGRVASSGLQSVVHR

[2] = system: human PBMCs (responder cells) with RPMI1788 stimulator cells; experiment: Mixed Lymphocyte Reaction (MLR, T cell assay), 3H-thymidine incorporation; format: cell-based; details: for IC50: Homo sapiens, RPMI-1788, mean of 4 independent measures, read-out: T-cell efficacy, MLR IC 50 (µM) Mean; for Selectivity Index (SI) MLR/B-cell: ratio of IC50 values
[3] = WST-1 cytotoxicity assay on Jurkat cells (T-cell line); format: cell-based, human; details: human, Jurkat cells (T-cell line), mean of 4 independent measures, read-out: Cytotoxicity, WST-1 Jurkat IC 50 (µM) Mean
Description: as §1
The human B cell line RPMI1788 (American Type Culture Collection, USA) and the human T cell line Jurkat (European Collection of Cell Cultures, ECACC, England) were maintained in RPMI1640 culture medium (BioWhittaker®, Lonza, Verviers, Belgium) containing 10% foetal calf serum (FCS, HyClone® Thermo Scientific, United Kingdom) and 5 μg/mL gentamicin sulphate (BioWhittaker®, Lonza, Verviers, Belgium) at 37°C and 5% CO2.
WST-1 assays on RPMI-1788 cells and Jurkat cells were performed as follows: 20 μL of test compound dilution were added to each well containing exponential growing cells and the plates were incubated for 48 h at 37°C, 5% CO2. Untreated cells and positive control (1% triton X-100, for the last 15 min) served as reference for maximum and minimum viability. At the end of incubation 100 μL of supernatant were removed and replaced by 10 μL of WST-1 solution (Cell Proliferation Reagent WST-1, Roche Applied Science).

MAP2K2 = target: T2, MAP2K2 (Homo sapiens, UniProt P36507); experiment: Kinase activity test (ReactionBiology), % enzyme activity relative to DMSO; format: biochemical; details: MEK2
T2 construct: purchased ReactionBiology
T2 sequence (P36507 whole entry): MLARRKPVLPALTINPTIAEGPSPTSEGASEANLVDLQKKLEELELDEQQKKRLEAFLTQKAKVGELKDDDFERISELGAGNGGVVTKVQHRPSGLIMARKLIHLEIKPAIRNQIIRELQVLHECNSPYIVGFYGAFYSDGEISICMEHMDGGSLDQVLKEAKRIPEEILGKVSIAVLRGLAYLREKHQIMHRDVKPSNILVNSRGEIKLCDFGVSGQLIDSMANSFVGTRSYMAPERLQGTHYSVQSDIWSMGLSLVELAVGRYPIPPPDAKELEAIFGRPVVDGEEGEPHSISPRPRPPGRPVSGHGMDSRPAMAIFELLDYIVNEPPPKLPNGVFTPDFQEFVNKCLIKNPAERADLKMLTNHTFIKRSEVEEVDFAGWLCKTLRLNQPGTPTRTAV

MST-4 = target: T3, MST-4 (Homo sapiens, UniProt Q9P289); experiment: as above; format: biochemical; details: MST4;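 note: marketed FDA-approved drugs screened at 10 µM and 1 µM against a ten-kinase panel, remaining activity given as percent of DMSO controls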
T3 construct: purchased ReactionBiology
T3 sequence (Q9P289 whole entry): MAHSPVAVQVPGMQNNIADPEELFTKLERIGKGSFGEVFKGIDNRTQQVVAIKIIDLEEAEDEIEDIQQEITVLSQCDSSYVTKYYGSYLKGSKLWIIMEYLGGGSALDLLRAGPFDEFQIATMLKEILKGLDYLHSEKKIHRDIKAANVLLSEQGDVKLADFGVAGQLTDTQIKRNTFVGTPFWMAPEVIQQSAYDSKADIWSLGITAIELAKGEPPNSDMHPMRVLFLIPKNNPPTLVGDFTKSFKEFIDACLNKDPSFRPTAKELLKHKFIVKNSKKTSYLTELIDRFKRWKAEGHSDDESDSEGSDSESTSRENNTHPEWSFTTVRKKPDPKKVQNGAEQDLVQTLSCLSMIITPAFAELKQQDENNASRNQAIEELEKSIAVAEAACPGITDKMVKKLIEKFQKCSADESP

DAPK1 = target: T4, DAPK1 (Homo sapiens, UniProt P53355); experiment: as above; format: biochemical; details: DAPK1
T4 construct: purchased ReactionBiology
T4 sequence (P53355 whole entry): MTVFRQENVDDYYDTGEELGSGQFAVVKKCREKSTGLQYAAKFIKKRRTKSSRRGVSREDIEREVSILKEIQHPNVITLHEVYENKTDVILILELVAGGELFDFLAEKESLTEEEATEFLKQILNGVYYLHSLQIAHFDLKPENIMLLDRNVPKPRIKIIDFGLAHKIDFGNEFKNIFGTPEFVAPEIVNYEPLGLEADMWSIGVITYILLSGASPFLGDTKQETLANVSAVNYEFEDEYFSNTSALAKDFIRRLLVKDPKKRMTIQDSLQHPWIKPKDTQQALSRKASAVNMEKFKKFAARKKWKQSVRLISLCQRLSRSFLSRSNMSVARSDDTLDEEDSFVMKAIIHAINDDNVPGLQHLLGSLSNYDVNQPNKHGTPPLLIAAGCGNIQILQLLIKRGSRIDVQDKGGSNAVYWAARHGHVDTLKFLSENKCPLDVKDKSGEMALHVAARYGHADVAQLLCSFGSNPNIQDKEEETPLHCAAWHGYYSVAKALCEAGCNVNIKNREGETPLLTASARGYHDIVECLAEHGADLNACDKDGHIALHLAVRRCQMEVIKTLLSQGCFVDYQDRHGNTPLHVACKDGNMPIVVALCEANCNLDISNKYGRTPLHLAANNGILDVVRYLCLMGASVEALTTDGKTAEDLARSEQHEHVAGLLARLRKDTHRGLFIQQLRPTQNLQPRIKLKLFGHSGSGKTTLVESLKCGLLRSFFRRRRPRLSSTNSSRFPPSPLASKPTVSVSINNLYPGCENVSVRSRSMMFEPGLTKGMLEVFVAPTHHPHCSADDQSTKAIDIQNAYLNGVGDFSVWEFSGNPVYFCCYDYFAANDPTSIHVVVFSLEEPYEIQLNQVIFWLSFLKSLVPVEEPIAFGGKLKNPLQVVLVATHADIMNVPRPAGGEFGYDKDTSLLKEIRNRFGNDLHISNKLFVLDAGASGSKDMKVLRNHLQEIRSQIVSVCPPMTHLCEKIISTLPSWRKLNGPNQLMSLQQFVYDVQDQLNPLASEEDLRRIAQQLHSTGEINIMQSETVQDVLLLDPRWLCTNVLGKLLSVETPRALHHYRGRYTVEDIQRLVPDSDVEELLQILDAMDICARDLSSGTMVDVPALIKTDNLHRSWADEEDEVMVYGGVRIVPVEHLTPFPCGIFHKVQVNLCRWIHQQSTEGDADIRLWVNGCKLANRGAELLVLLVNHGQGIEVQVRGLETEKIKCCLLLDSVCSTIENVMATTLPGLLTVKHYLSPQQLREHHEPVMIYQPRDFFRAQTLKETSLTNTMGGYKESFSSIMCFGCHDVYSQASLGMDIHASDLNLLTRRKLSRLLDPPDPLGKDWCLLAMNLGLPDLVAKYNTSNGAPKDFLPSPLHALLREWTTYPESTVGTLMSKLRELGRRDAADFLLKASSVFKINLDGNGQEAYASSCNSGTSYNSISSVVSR

NEK2 = target: T5, NEK2 (Homo sapiens, UniProt P51955); experiment: as above; format: biochemical;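 note: FDA-approved drugs chosen by structure-based repositioning, each screened at 10 or 1 µM for kinase activity, expressed as percent of DMSO controls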
T5 construct: purchased ReactionBiology
T5 sequence (P51955 1-445): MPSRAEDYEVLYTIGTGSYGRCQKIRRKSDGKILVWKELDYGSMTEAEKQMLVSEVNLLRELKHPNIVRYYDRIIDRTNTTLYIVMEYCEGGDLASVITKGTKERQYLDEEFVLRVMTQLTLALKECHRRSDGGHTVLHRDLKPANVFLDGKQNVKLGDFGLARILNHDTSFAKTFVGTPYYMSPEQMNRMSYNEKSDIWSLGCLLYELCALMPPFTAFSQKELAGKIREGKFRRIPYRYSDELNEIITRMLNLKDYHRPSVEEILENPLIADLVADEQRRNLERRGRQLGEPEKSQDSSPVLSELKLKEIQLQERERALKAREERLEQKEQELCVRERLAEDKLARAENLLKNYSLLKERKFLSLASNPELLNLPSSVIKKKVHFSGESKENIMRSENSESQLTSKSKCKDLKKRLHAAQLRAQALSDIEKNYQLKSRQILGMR

VEGFR2 = VEGFR2 (Homo sapiens, UniProt P35968); experiment: as above; format: biochemical; design: purchased ReactionBiology; details: VEGFR2;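 note: VEGFR2 was one member of a ten-kinase screening panel testing marketed FDA-approved drugs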
VEGFR2, sequence (P35968 20-1356): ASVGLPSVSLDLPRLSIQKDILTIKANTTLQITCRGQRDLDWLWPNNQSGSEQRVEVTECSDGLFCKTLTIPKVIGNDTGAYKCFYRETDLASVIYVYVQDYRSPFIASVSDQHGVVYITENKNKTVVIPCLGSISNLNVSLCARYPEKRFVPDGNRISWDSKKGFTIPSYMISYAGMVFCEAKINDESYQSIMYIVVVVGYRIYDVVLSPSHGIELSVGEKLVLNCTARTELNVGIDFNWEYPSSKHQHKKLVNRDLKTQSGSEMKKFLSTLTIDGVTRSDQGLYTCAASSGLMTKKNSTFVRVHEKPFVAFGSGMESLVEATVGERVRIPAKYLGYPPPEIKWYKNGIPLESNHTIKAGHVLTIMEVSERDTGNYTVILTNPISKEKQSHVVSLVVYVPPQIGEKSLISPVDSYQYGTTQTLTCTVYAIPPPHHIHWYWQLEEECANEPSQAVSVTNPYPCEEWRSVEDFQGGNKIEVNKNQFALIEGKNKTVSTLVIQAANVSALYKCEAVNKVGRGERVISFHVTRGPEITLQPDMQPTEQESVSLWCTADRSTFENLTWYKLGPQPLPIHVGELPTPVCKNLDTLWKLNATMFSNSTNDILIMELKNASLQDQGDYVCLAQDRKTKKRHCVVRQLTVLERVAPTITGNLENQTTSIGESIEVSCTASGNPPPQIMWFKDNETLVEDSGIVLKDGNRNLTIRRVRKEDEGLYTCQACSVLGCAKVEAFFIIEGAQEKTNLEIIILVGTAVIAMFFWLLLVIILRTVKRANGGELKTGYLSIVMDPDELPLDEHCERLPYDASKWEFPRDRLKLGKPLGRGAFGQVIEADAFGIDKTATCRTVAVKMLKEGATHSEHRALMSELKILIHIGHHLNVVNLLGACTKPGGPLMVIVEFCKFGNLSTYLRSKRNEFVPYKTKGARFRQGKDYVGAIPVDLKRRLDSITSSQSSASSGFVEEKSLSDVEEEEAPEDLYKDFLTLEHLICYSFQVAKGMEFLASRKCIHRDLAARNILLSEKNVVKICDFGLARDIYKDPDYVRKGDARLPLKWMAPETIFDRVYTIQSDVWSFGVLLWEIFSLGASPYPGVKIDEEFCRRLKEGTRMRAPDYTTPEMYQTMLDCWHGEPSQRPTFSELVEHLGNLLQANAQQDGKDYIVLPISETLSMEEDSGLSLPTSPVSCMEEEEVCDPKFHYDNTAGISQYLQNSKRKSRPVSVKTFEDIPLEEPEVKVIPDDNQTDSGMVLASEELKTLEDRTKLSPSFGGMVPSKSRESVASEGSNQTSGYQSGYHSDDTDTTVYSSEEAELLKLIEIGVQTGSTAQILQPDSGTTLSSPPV

[4] = 168 h, IgG production, ODN2006 0.1 μM, 7 days, mean of 4 independent experiments, read-out: B-cell IC50
[5] = 1 uM, Average, read-out: % Enzyme Activity (relative to DMSO controls), Average
[6] = 1 uM, replicate Data 1, read-out: % Enzyme Activity (relative to DMSO controls), Data 1
[7] = 1 uM, replicate Data 2, read-out: % Enzyme Activity (relative to DMSO controls), Data 2
[8] = 10 uM, Average, read-out: % Enzyme Activity (relative to DMSO controls), Average
[9] = 10 uM, replicate Data 1, read-out: % Enzyme Activity (relative to DMSO controls), Data 1
[10] = 10 uM, replicate Data 2, read-out: % Enzyme Activity (relative to DMSO controls), Data 2
[11] = compound 1μM, relative to DMSO controls, read-out: % Enzyme activity at 1μM
[12] = compound 10μM, relative to DMSO controls, read-out: % Enzyme activity at 10μM
[13] = Average, read-out: % Enzyme Activity (relative to DMSO controls), Average
[14] = replicate Data 1, read-out: % Enzyme Activity (relative to DMSO controls), Data 1
[15] = replicate Data 2, read-out: % Enzyme Activity (relative to DMSO controls), Data 2
[16] = NEK2, 1 uM, Average, read-out: % Enzyme Activity (relative to DMSO controls), Average
[17] = NEK2, 1 uM, replicate Data 1, read-out: % Enzyme Activity (relative to DMSO controls), Data 1
[18] = NEK2, 1 uM, replicate Data 2, read-out: % Enzyme Activity (relative to DMSO controls), Data 2
[19] = NEK2, 10 uM, Average, read-out: % Enzyme Activity (relative to DMSO controls), Average
[20] = NEK2, 10 uM, replicate Data 1, read-out: % Enzyme Activity (relative to DMSO controls), Data 1
[21] = NEK2, 10 uM, replicate Data 2, read-out: % Enzyme Activity (relative to DMSO controls), Data 2
[22] = read-out: % Enzyme Activity (relative to DMSO controls), Average
[23] = read-out: % Enzyme Activity (relative to DMSO controls), Data 1
[24] = read-out: % Enzyme Activity (relative to DMSO controls), Data 2
[25] = NEK2, compound 1μM, relative to DMSO controls, read-out: % Enzyme activity at 1μM
[26] = NEK2, compound 10μM, relative to DMSO controls, read-out: % Enzyme activity at 10μM

| Compound | IC50 (human CD19+ B cells; [4]) [µM] | remaining activity at 1 µM (CK1d; [5]) [%] | remaining activity at 1 µM (CK1d; [6]) [%] | remaining activity at 1 µM (CK1d; [7]) [%] | remaining activity at 10 µM (CK1d; [8]) [%] | remaining activity at 10 µM (CK1d; [9]) [%] | remaining activity at 10 µM (CK1d; [10]) [%] | remaining activity at 1 µM (DAPK1; [5]) [%] | remaining activity at 1 µM (DAPK1; [6]) [%] | remaining activity at 1 µM (DAPK1; [7]) [%] | remaining activity at 1 µM (NEK2; [16]) [%] | remaining activity at 1 µM (NEK2; [17]) [%] | remaining activity at 1 µM (NEK2; [18]) [%] | remaining activity at 10 µM (NEK2; [19]) [%] | remaining activity at 10 µM (NEK2; [20]) [%] | remaining activity at 10 µM (NEK2; [21]) [%] | IC50 at 48 h [1] [µM] | IC50 [2] [µM] | Selectivity Index (SI) MLR/B-cell [2] | IC50 at 48 h [3] [µM] | also measured |
| --- | --- | --- | --- | --- | --- | --- | --- | --- | --- | --- | --- | --- | --- | --- | --- | --- | --- | --- | --- | --- | --- |
| CCN(CC)Cc1cc(Nc2ccnc3cc(Cl)ccc23)ccc1O [Amodiaquine, reference compound] | 0.66 | 107 | 106 | 108 | 69.1 | 70.5 | 67.6 | – | – | – | – | – | – | – | – | – | 28.1 | 9.78 | 14.73 | 26.2 | remaining activity at 1 µM (CK1d; [11]): 107%; remaining activity at 10 µM (CK1d; [12]): 69.1% |
| Cc1nc(Nc2ncc(C(=O)Nc3c(C)cccc3Cl)s2)cc(N2CCN(CCO)CC2)n1 [Dasatinib, reference compound] | 0.046 | 98.7 | 95.4 | 102 | 92.7 | 93.2 | 92.2 | 92 | 91.8 | 92.1 | 81.6 | 81.9 | 81.2 | 19 | 20 | 18 | 0.0324 | 0.0032 | – | 7.3 | remaining activity at 1 µM (MAP2K2; [13]): 45.1%; remaining activity at 1 µM (MAP2K2; [14]): 44.8%; remaining activity at 1 µM (MAP2K2; [15]): 45.5%; remaining activity at 10 µM (MAP2K2; [13]): 7.91%; remaining activity at 10 µM (MAP2K2; [14]): 8.25%; remaining activity at 10 µM (MAP2K2; [15]): 7.56%; remaining activity at 1 µM (MST-4; [13]): 40.2%; remaining activity at 1 µM (MST-4; [14]): 46.5%; remaining activity at 1 µM (MST-4; [15]): 33.9%; remaining activity at 10 µM (MST-4; [13]): 12%; remaining activity at 10 µM (MST-4; [14]): 9.39%; remaining activity at 10 µM (MST-4; [15]): 14.6%; remaining activity at 10 µM (DAPK1; [8]): 51.4%; remaining activity at 10 µM (DAPK1; [9]): 49.9%; remaining activity at 10 µM (DAPK1; [10]): 52.8% |
| Oc1c(Cl)cc(Cl)c(Cl)c1Cc1c(O)c(Cl)cc(Cl)c1Cl [Hexachlorophene, reference compound] | 5.34 | – | – | – | – | – | – | – | – | – | – | – | – | – | – | – | 4.2 | 1.42 | – | 5.88 | remaining activity at 1 µM (NEK2; [22]): 84.9%; remaining activity at 10 µM (NEK2; [22]): 0.02%; remaining activity at 1 µM (NEK2; [23]): 85.4%; remaining activity at 10 µM (NEK2; [23]): -0.21%; remaining activity at 1 µM (NEK2; [24]): 84.5%; remaining activity at 10 µM (NEK2; [24]): 0.25%; remaining activity at 1 µM (NEK2; read-out: % Enzyme activity at 1μM): 84.9%; remaining activity at 10 µM (NEK2; read-out: % Enzyme activity at 10μM): 0.02% |
| N[C@@H](Cc1cc(I)c(Oc2cc(I)c(O)c(I)c2)c(I)c1)C(=O)O [Thyroxine, reference compound] | 34.1 | 106 | 106 | 106 | 97.2 | 99.7 | 94.7 | – | – | – | 90.2 | 91.2 | 89.1 | 48.1 | 47.1 | 49.1 | > 50 | > 50 | – | > 50 | remaining activity at 1 µM (NEK2; [25]): 90.2%; remaining activity at 10 µM (NEK2; [26]): 48.1%; remaining activity at 1 µM (VEGFR2; [5]): 104%; remaining activity at 1 µM (VEGFR2; [6]): 106%; remaining activity at 1 µM (VEGFR2; [7]): 103%; remaining activity at 10 µM (VEGFR2; [13]): 86.6%; remaining activity at 10 µM (VEGFR2; [14]): 89.7%; remaining activity at 10 µM (VEGFR2; [15]): 83.5% |

Further molecules by falling IC50 (human CD19+ B cells; [4]), results first:

| IC50 (human CD19+ B cells; [4]) [µM] | remaining activity at 1 µM (CK1d; [5]) [%] | remaining activity at 1 µM (CK1d; [6]) [%] | remaining activity at 1 µM (CK1d; [7]) [%] | remaining activity at 10 µM (CK1d; [8]) [%] | remaining activity at 10 µM (CK1d; [9]) [%] | remaining activity at 10 µM (CK1d; [10]) [%] | remaining activity at 1 µM (DAPK1; [5]) [%] | remaining activity at 1 µM (DAPK1; [6]) [%] | remaining activity at 1 µM (DAPK1; [7]) [%] | remaining activity at 1 µM (NEK2; [16]) [%] | remaining activity at 1 µM (NEK2; [17]) [%] | remaining activity at 1 µM (NEK2; [18]) [%] | remaining activity at 10 µM (NEK2; [19]) [%] | remaining activity at 10 µM (NEK2; [20]) [%] | remaining activity at 10 µM (NEK2; [21]) [%] | Compound | IC50 at 48 h [1] [µM] | IC50 [2] [µM] | Selectivity Index (SI) MLR/B-cell [2] | IC50 at 48 h [3] [µM] | also measured |
| --- | --- | --- | --- | --- | --- | --- | --- | --- | --- | --- | --- | --- | --- | --- | --- | --- | --- | --- | --- | --- | --- |
| 0.59 | – | – | – | – | – | – | – | – | – | 104 | 104 | 104 | 51.6 | 49 | 54.1 | Nc1ccc2cc3ccc(N)cc3nc2c1 [Proflavine, reference compound] | 3.01 | 4.39 | 7.5 | 5 | remaining activity at 1 µM (NEK2; [25]): 104%; remaining activity at 10 µM (NEK2; [26]): 51.6% |
| 0.0002 | – | – | – | – | – | – | 95.6 | 97.4 | 93.8 | – | – | – | – | – | – | C=CC(=O)N1CCC[C@@H](n2nc(-c3ccc(Oc4ccccc4)cc3)c3c(N)ncnc32)C1 [Ibrutinib, reference compound] | 0.7 | 1 | – | 14.7 | IC50 (human CD19+ B cells; mean of 4 independent measures, read-out: B-cell efficacy, B cell IC 50 (µM) Mean): 0.000181 µM; remaining activity at 10 µM (DAPK1; [8]): 23.7%; remaining activity at 10 µM (DAPK1; [9]): 24%; remaining activity at 10 µM (DAPK1; [10]): 23.5%; remaining activity at 1 µM (DAPK1; [11]): 95.6%; remaining activity at 10 µM (DAPK1; [12]): 23.7%; remaining activity at 1 µM (VEGFR2; [5]): 19.5%; remaining activity at 1 µM (VEGFR2; [6]): 19.6%; remaining activity at 1 µM (VEGFR2; [7]): 19.5%; remaining activity at 10 µM (VEGFR2; [14]): 1.46%; remaining activity at 10 µM (VEGFR2; [15]): 1.53%; inhibition of the kinase activity (strong/weak) (VEGFR2; at 10 and 1 μM): strong (We considered a 50% inhibition of the kinase activity as strong); remaining activity at 1 µM (VEGFR2; [11]): 19.5% |
